{"source": "paper PMC7395068", "about": "“The evolution of strategies to minimise the risk of human drug-induced liver injury (DILI) in drug discovery and development” (Archives of Toxicology, 2020)", "origin": "cited, not measured here", "key": {"HepG2 cells": {"test_system": "HepG2 cells", "conditions": "cited from earlier work"}, "[1]": {"conditions": "cited from earlier work"}, "[2]": {"test_system": "THLE or HepG2 cells, isolated mitochondria, BSEP", "conditions": "In vitro Assay; ref Aleo 2019; cited from earlier work"}, "human hepatocytes": {"test_system": "human hepatocytes", "conditions": "In vitro Assay; ref Xu 2008; cited from earlier work"}, "[3]": {"conditions": "cited from earlier work", "remark": "listed apart in the source"}, "[4]": {"test_system": "primary human hepatocytes, NIH3T3 fibroblasts, BSEP, CYP3A4", "conditions": "cited from earlier work"}, "[5]": {"conditions": "assignment in O'Brien 2006, ref O'Brien 2006"}, "[6]": {"conditions": "In vitro Assay, ref O'Brien 2006"}}, "note": "Read-outs that look alike come from different tables or passages of the source."}
{"compound": "CC[C@H](C)C(=O)O[C@H]1CCC=C2C=C[C@H](C)[C@H](CC[C@@H]3C[C@@H](O)CC(=O)O3)[C@H]21", "note": "[mevastatin]", "values": [{"measurement": "Structural based (HCI), In vitro Assay", "setting": "HepG2 cells; HepG2 HCI, ref O'Brien 2006", "value": "-VE"}, {"measurement": "In vivo DILI", "setting": "[1]; [5]", "value": "-VE"}]}
{"compound": "O=C(O)c1cccnc1", "note": "[niacin]", "values": [{"measurement": "Structural based (HCI)", "setting": "HepG2 cells; [6]", "value": "-VE"}, {"measurement": "Partition Hybrid HRM Score", "setting": "[2]", "value": "+VE"}, {"measurement": "Ro2 Hybrid HRM Score", "setting": "[2]", "value": "-VE"}]}
{"compound": "COC(=O)Nc1nc2ccc(C(=O)c3cccs3)cc2[nH]1", "note": "[nocodazole]", "values": [{"measurement": "Structural based (HCI)", "setting": "HepG2 cells; [6]", "value": "+VE (lowest HCI endpoint IC50 (or in the absence of dose–response < 100 µM) < 30 × total human plasma exposure levels (Cmax.tot))"}, {"measurement": "Structural based (HCI)", "setting": "human hepatocytes", "value": "-VE"}, {"measurement": "In vivo DILI", "setting": "[1]; ref O'Brien 2006", "value": "-VE"}, {"measurement": "In vivo DILI", "setting": "[1]; ref Xu 2008", "value": "-VE"}]}
{"compound": "CCn1cc(C(=O)O)c(=O)c2cc(F)c(N3CCNCC3)cc21", "note": "[norfloxacin]", "values": [{"measurement": "Structural based (HCI)", "setting": "HepG2 cells; [6]", "value": "+VE (lowest HCI endpoint IC50 (or in the absence of dose–response < 100 µM) < 30 × total human plasma exposure levels (Cmax.tot))"}, {"measurement": "In vivo DILI", "setting": "[1]; ref O'Brien 2006", "value": "+VE"}, {"measurement": "DILI +VE (5-8), DILI -VE (-4)", "setting": "[3]; ref Chen 2016", "value": "+VE"}, {"measurement": "DILI severity category", "setting": "[3]; ref Chen 2016", "value": "vLess-DILI-Concern"}]}
{"compound": "CCC1(c2ccccc2)C(=O)NCNC1=O", "note": "[primidone]", "values": [{"measurement": "Structural based (HCI)", "setting": "HepG2 cells", "value": "+VE"}, {"measurement": "DILI +VE (5-8), DILI -VE (-4)", "setting": "[3]; in vivo", "value": "-VE"}]}
{"compound": "CCCc1cc(=O)[nH]c(=S)[nH]1", "note": "[propythiouracil]", "values": [{"measurement": "Structural based (HCI), In vitro Assay", "setting": "HepG2 cells; HepG2 HCI, ref O'Brien 2006", "value": "+VE"}]}
{"compound": "CCc1nc(N)nc(N)c1-c1ccc(Cl)cc1", "note": "[pyrimethamine]", "values": [{"measurement": "Structural based (HCI)", "setting": "HepG2 cells; [6]", "value": "+VE"}, {"measurement": "Structural based (HCI)", "setting": "human hepatocytes", "value": "+VE"}, {"measurement": "Cellular toxicity (3T3 cells)", "setting": "[4]", "value": "-VE"}, {"measurement": "Combined Assay", "setting": "[4]", "value": "-VE"}, {"measurement": "GSH adduct HML", "setting": "[4]", "value": "-VE"}, {"measurement": "Hepatocyte cellular toxicity", "setting": "[4]", "value": "-VE"}, {"measurement": "MitoTox 3T3", "setting": "[4]", "value": "-VE"}, {"measurement": "TDI CYP3A4", "setting": "[4]", "value": "-VE"}, {"measurement": "hBSEP inhibition", "setting": "[4]", "value": "-VE"}, {"measurement": "In vivo DILI", "setting": "[1]; ref O'Brien 2006", "value": "+VE"}, {"measurement": "In vivo DILI", "setting": "[1]; ref Schadt 2015", "value": "-VE"}, {"measurement": "In vivo DILI", "setting": "[1]; ref Xu 2008", "value": "+VE"}, {"measurement": "DILI +VE (5-8), DILI -VE (-4)", "setting": "[3]; ref Chen 2016", "value": "+VE"}, {"measurement": "DILI severity category", "setting": "[3]; ref Chen 2016", "value": "vLess-DILI-Concern"}]}
{"compound": "[Cl-].[Na+]", "note": "[sodium chloride]", "values": [{"measurement": "Structural based (HCI), In vitro Assay", "setting": "HepG2 cells", "value": "+VE"}, {"measurement": "In vivo DILI", "setting": "[1]; in vivo", "value": "-VE"}]}
{"compound": "CN(N=O)C(=O)N[C@@H](C=O)[C@@H](O)[C@H](O)[C@H](O)CO", "note": "[streptozocin]", "values": [{"measurement": "Structural based (HCI)", "setting": "HepG2 cells; [6]", "value": "-VE"}, {"measurement": "In vivo DILI", "setting": "[1]; ref O'Brien 2006", "value": "-VE"}, {"measurement": "DILI +VE (5-8), DILI -VE (-4)", "setting": "[3]; ref Chen 2016", "value": "-VE"}, {"measurement": "DILI severity category", "setting": "[3]; ref Chen 2016", "value": "Ambiguous DILI-concern"}]}
{"compound": "Nc1ccc(S(=O)(=O)NC(=O)c2ccccc2)cc1", "note": "[sulfabenzamide]", "values": [{"measurement": "Structural based (HCI), In vitro Assay", "setting": "HepG2 cells; HepG2 HCI, ref O'Brien 2006", "value": "-VE"}, {"measurement": "In vivo DILI", "setting": "[1]; [5]", "value": "-VE"}]}
{"compound": "Nc1ccc(S(=O)(=O)Nc2ccnn2-c2ccccc2)cc1", "note": "[sulfaphenazole]", "values": [{"measurement": "Structural based (HCI)", "setting": "HepG2 cells; [6]", "value": "+VE (lowest HCI endpoint IC50 (or in the absence of dose–response < 100 µM) < 30 × total human plasma exposure levels (Cmax.tot))"}, {"measurement": "In vivo DILI", "setting": "[1]; […]", "value": "-VE"}, {"measurement": "In vivo DILI", "setting": "[1]; ref O'Brien 2006", "value": "+VE"}]}
{"compound": "Cc1scc2c1N(C(=O)CN1CCN(C)CC1)c1ccccc1NC2=O", "note": "[telenzipine]", "values": [{"measurement": "Structural based (HCI), In vitro Assay", "setting": "HepG2 cells; HepG2 HCI, ref O'Brien 2006", "value": "-VE"}, {"measurement": "In vivo DILI", "setting": "[1]; [5]", "value": "-VE"}]}
{"compound": "Cc1ccc(S(=O)(=O)NC(=O)NN2CCCCCC2)cc1", "note": "[tolazamide]", "values": [{"measurement": "Structural based (HCI)", "setting": "HepG2 cells; [6]", "value": "+VE (lowest HCI endpoint IC50 (or in the absence of dose–response < 100 µM) < 30 × total human plasma exposure levels (Cmax.tot))"}, {"measurement": "In vivo DILI", "setting": "[1]; ref O'Brien 2006", "value": "+VE"}, {"measurement": "DILI +VE (5-8), DILI -VE (-4)", "setting": "[3]; ref Chen 2016", "value": "+VE"}, {"measurement": "DILI severity category", "setting": "[3]; ref Chen 2016", "value": "vLess-DILI-Concern"}]}
{"compound": "CC[C@]12CCCN3CCc4c(n(c5ccccc45)[C@@](O)(C(=O)OC)C1)[C@@H]32", "note": "[vincamine]", "values": [{"measurement": "Structural based (HCI), In vitro Assay", "setting": "HepG2 cells; HepG2 HCI, ref O'Brien 2006", "value": "+VE"}, {"measurement": "In vivo DILI", "setting": "[1]; [5]", "value": "-VE"}]}
{"compound": "COc1cc(C(=O)NS(=O)(=O)c2ccccc2C)ccc1Cc1cn(C)c2ccc(NC(=O)OC3CCCC3)cc12", "note": "[zafirlukast]", "values": [{"measurement": "Structural based (HCI)", "setting": "HepG2 cells; [6]", "value": "+VE"}, {"measurement": "Structural based (HCI)", "setting": "human hepatocytes", "value": "-VE"}, {"measurement": "Partition Hybrid HRM Score", "setting": "[2]", "value": "+VE"}, {"measurement": "Ro2 Hybrid HRM Score", "setting": "[2]", "value": "+VE"}, {"measurement": "In vivo DILI", "setting": "[1]; […]", "value": "+VE"}, {"measurement": "In vivo DILI", "setting": "[1]; ref Aleo 2019", "value": "+VE"}, {"measurement": "In vivo DILI", "setting": "[1]; ref O'Brien 2006", "value": "+VE"}, {"measurement": "In vivo DILI", "setting": "[1]; ref Xu 2008", "value": "+VE"}, {"measurement": "DILI +VE (5-8), DILI -VE (-4)", "setting": "[3]; ref Chen 2016", "value": "+VE"}, {"measurement": "DILI severity category", "setting": "[3]; ref Chen 2016", "value": "vMost-DILI-Concern"}]}
{"compound": "Nc1ccn([C@H]2CC[C@@H](CO)O2)c(=O)n1", "note": "[zalcitabine]", "values": [{"measurement": "Structural based (HCI)", "setting": "HepG2 cells; [6]", "value": "-VE"}, {"measurement": "Structural based (HCI)", "setting": "human hepatocytes", "value": "-VE"}, {"measurement": "Partition Hybrid HRM Score", "setting": "[2]", "value": "-VE"}, {"measurement": "Ro2 Hybrid HRM Score", "setting": "[2]", "value": "-VE"}, {"measurement": "In vivo DILI", "setting": "[1]; ref Aleo 2019", "value": "+VE"}, {"measurement": "In vivo DILI", "setting": "[1]; ref O'Brien 2006", "value": "-VE"}, {"measurement": "In vivo DILI", "setting": "[1]; ref Xu 2008", "value": "-VE"}]}
{"compound": "NS(=O)(=O)Cc1noc2ccccc12", "note": "[zonisamide]", "values": [{"measurement": "Structural based (HCI)", "setting": "HepG2 cells; [6]", "value": "+VE (lowest HCI endpoint IC50 (or in the absence of dose–response < 100 µM) < 30 × total human plasma exposure levels (Cmax.tot))"}, {"measurement": "In vivo DILI", "setting": "[1]; ref O'Brien 2006", "value": "-VE"}, {"measurement": "DILI +VE (5-8), DILI -VE (-4)", "setting": "[3]; ref Chen 2016", "value": "+VE"}, {"measurement": "DILI severity category", "setting": "[3]; ref Chen 2016", "value": "vLess-DILI-Concern"}]}
{"compound": "cyanocobalamin", "values": [{"measurement": "Structural based (HCI)", "setting": "HepG2 cells; [6]", "value": "-VE"}, {"measurement": "Structural based (HCI)", "setting": "human hepatocytes", "value": "-VE"}, {"measurement": "Partition Hybrid HRM Score", "setting": "[2]", "value": "-VE"}, {"measurement": "Ro2 Hybrid HRM Score", "setting": "[2]", "value": "-VE"}, {"measurement": "In vivo DILI", "setting": "[1]; ref Aleo 2019", "value": "-VE"}, {"measurement": "In vivo DILI", "setting": "[1]; ref O'Brien 2006", "value": "-VE"}, {"measurement": "In vivo DILI", "setting": "[1]; ref Xu 2008", "value": "-VE"}, {"measurement": "DILI +VE (5-8), DILI -VE (-4)", "setting": "[3]; in vivo", "value": "-VE"}, {"measurement": "DILI severity category", "setting": "[3]; in vivo", "value": "vNo-DILI-Concern"}]}
